{"source": "patent US20080031894A1", "about": "“Beta acid based protein kinase modulation cancer treatment” (Metaproteomics, LLC, priority 2006, published 2008)", "key": {"adiponectin secretion [1]": {"test_system": "adiponectin secretion", "test": "Adiponectin secretion in LPS/3T3-L1 adipocytes", "assay_type": "cell-based, murine", "conditions": "LPS 100 ng/ml; for adiponectin secretion, in words: any of the doses tested"}, "adiponectin secretion [2]": {"test_system": "adiponectin secretion", "test": "Adiponectin secretion from TNFα-treated 3T3-L1 adipocytes", "assay_type": "cell-based, murine", "conditions": "for maximum increase of adiponectin secretion from the TNFα control: 10 ng/ml TNFα", "experimental": "3T3-L1 cells were seeded at an initial density of 1×10^4 cells/cm^2 in 96-well plates. For two days, the cells were allowed grow to reach confluence. Following confluence, the cells were forced to differentiate into adipocytes by the addition of differentiation medium; this medium consisted of (1) 10% FBS/DMEM (high glucose); (2) 0.5 mM methylisobutylxanthine; (3) 0.5 μM dexamethasone and (4) 10 μg/ml insulin (MDI medium). From Day 3 through Day 5, the medium was changed to post-differentiation medium consisting of 10% FBS in DMEM. […] On Day 6, the supernatant medium was sampled for adiponectin determination.\n(§1) Adiponectin Assay—The adiponectin secreted into the medium was quantified using the Mouse Adiponectin Quantikine® Immunoassay kit with no modifications (R&D Systems, Minneapolis, Minn.).\nStatistical Calculations and Interpretation—All assays were preformed in duplicate. […] Differences among the doses and test agents were determined using the Student's t-test without correction for multiple comparisons; the nominal five percent probability of a type I error was selected."}, "PGE2 biosynthesis": {"test_system": "PGE2 biosynthesis", "test": "PGE2 biosynthesis in A549 pulmonary epithelial cells stimulated by mite dust allergen", "assay_type": "cell-based, human", "conditions": "10 μg/ml, added 60 minutes prior to mite dust allergen", "excerpt": "Mite dust allergen isolation—Dermatophagoides farinae is the American house dust mite. D. farinae were raised on a 1:1 ratio of Purina Laboratory Chow (Ralston Purina, Co, St. Louis, Mo.) and Fleischmann's granulated dry yeast (Standard Brands, Inc. New York, N.Y.) at room temperature and 75% humidity. Live mites were aspirated from the culture container as they migrated from the medium, killed by freezing, desiccated and stored at 0% humidity. The allergenic component of the mite dust was extracted with water at ambient temperature. Five-hundred mg of mite powder were added to 5 ml of water (1:10 w/v) in a 15 ml conical centrifuge tube (VWR, Rochester, N.Y.), shaken for one minute and allowed to stand overnight at ambient temperature. The next day, the aqueous phase was filtered using a 0.2 μm disposable syringe filter (Nalgene, Rochester, N.Y.). The filtrate was termed mite dust allergen and used to test for induction of PGE2 biosynthesis in A549 pulmonary epithelial cells.\nCell culture and treatment—The human airway epithelial cell line, A549 (American Type Culture Collection, Bethesda, Md.) was cultured and treated as previously described in Example 6. Mite allergen was added to the culture medium to achieve a final concentration of 1000 ng/ml. Eighteen hours later, the media were sampled for PGE2 determination."}, "adiponectin secretion [3]": {"test_system": "adiponectin secretion", "test": "Adiponectin secretion from insulin-resistant 3T3-L1 adipocytes", "assay_type": "cell-based, murine", "experimental": "3T3-L1 cells were seeded at an initial density of 1×10^4 cells/cm^2 in 96-well plates. For two days, the cells were allowed grow to reach confluence. Following confluence, the cells were forced to differentiate into adipocytes by the addition of differentiation medium; this medium consisted of (1) 10% FBS/DMEM (high glucose); (2) 0.5 mM methylisobutylxanthine; (3) 0.5 μM dexamethasone and (4) 10 μg/ml insulin (MDI medium). From Day 3 through Day 5, the medium was changed to post-differentiation medium consisting of 10 μg/ml insulin in 10% FBS/DMEM.\nBriefly, on Day 6, cells were maintained in serum-free media containing 0.5% bovine serum albumin (BSA) for three hours and then treated with 1 μg insulin/ml plus solvent or insulin plus test material. […] Twenty-four hours later, the supernatant medium was sampled for adiponectin determination.\nas §1\nStatistical Calculations and Interpretation—All assays were preformed in duplicate. […] Differences between the doses were determined using the student's t-test without correction for multiple comparisons; the nominal five percent probability of a type I error was selected. […]"}, "[4]": {"test_system": "human PI3K-β, PI3K-γ, and PI3K-δ", "test": "Effect of hops components on PI3K activity (FIG. 3)", "assay_type": "biochemical", "conditions": "50 μg/ml", "procedure": "Additionally examined was an Acacia nilotica heartwood extract. All compounds were tested at 50 μg/ml. The results are presented graphically as FIG. 3."}, "[5]": {"test": "Non-fasting serum glucose and insulin in db/db diabetic mice, three days", "assay_type": "in vivo, mouse", "conditions": "three consecutive days by gavage", "experimental": "The Model—Male, C57BLKS/J m^+/m^+ Lepr^db (db/db) mice were used to assess the potential of the test materials to reduce fasting serum glucose or insulin concentrations. This strain of mice is resistant to leptin by virtue of the absence of a functioning leptin receptor.\nTesting Procedure—Test substances were administered daily by gavage in 0.2% Tween-80. Serum was collected from the retroorbital sinus before the initial dose and ninety minutes after the third and final dose. Non-fasting serum glucose was determined enzymatically by the mutarotase/glucose oxidase method and serum insulin was determined by a mouse specific ELISA."}, "IL-6": {"test_system": "IL-6", "test": "Serum IL-6 in collagen induced arthritis murine model", "assay_type": "in vivo, mouse", "conditions": "10 mg/kg"}}, "note": "Marks after values point to notes of the source that are not given here.", "data": [{"molecule": "CC(C)Cc1ccc(C(C)C(=O)O)cc1", "note": "(stereo not drawn) [ibuprofen]", "values": [{"measurement": "Maximum adiponectin stimulation", "setting": "adiponectin secretion [1]; 0.625 μg/ml", "value": 22, "unit": "%"}]}, {"molecule": "Cc1c(C)c2c(c(C)c1O)CCC(C)(COc1ccc(CC3SC(=O)NC3=O)cc1)O2", "note": "(stereo not drawn) [Troglitazone]", "values": [{"measurement": "maximum increase of adiponectin secretion from the TNFα control", "setting": "adiponectin secretion [2]", "value": 51, "unit": "%"}, {"measurement": "Maximum adiponectin stimulation", "setting": "adiponectin secretion [1]; 0.625 μg/ml", "value": 15, "unit": "%"}]}, {"molecule": "Beta acids", "values": [{"measurement": "Percent PGE2 Inhibition", "setting": "PGE2 biosynthesis", "value": 83, "unit": "%"}]}, {"molecule": "CCc1ccc(CCOc2ccc(CC3SC(=O)NC3=O)cc2)nc1", "note": "(stereo not drawn) [Pioglitazone]", "values": [{"measurement": "Adiponectin Index (relative maximum)", "setting": "adiponectin secretion [2]; 10 ng TNFα/ml, [Adiponectin]Test/[Adiponectin]TNFα control", "value": 1.47}, {"measurement": "maximum increase of adiponectin secretion from the TNFα control", "setting": "adiponectin secretion [2]", "value": 80, "unit": "%"}, {"measurement": "Adiponectin Index Observed", "setting": "adiponectin secretion [2]; 1.0 μg/ml, indexed to TNFα control (Table 26)", "value": 1.80}, {"measurement": "Maximum adiponectin stimulation", "setting": "adiponectin secretion [1]; […]", "value": 12, "unit": "%"}]}, {"molecule": "CC(=O)Oc1ccccc1C(=O)O", "note": "[Aspirin]", "values": [{"measurement": "adiponectin secretion, in words", "setting": "adiponectin secretion [1]", "value": "failed to induce adiponectin secretion"}]}, {"molecule": "COc1ccc2c(c1)c(CC(=O)O)c(C)n2C(=O)c1ccc(Cl)cc1", "note": "[Indomethacin]", "values": [{"measurement": "Maximum adiponectin stimulation", "setting": "adiponectin secretion [1]; […]", "value": 9, "unit": "%"}]}, {"molecule": "CC(C)CCC1=C(O)C(C(=O)C(C)C)=C(O)C(CCC(C)C)(CCC(C)C)C1=O", "note": "[Hexahydro-colupulone (HHCL)]", "values": [{"measurement": "Adiponectin/IL-6", "setting": "adiponectin secretion [3]; 50.0 μg/ml, ratio of indexes (Table 21)", "value": "0.60#"}]}, {"molecule": "COc1cc(O)c(CC=C(C)C)c(O)c1C(=O)/C=C/c1ccc(O)cc1", "note": "[xanthohumol]", "values": [{"measurement": "PI3K isoform effect, in words", "setting": "[4]", "value": "more inhibitory to PI3K-γ than to PI3K-β or PI3K-δ"}, {"measurement": "serum glucose, in words", "setting": "[5]", "value": "reduction in serum glucose"}, {"measurement": "serum insulin, in words", "setting": "[5]", "value": "no effect on insulin"}]}, {"molecule": "CC(C)CCC1=C(O)C(C(=O)C(C)C)=C(O)C(CCC(C)C)(CCC(C)C)C1=O", "note": "[hexahydrocolupulone]", "values": [{"measurement": "concentration required for half maximal adiponectin secretion", "setting": "adiponectin secretion [3]; Hofstee plot slope", "value": 3.2, "unit": "µg/mL"}]}, {"molecule": "O=C(O)c1ccccc1O", "note": "[salicylic acid]", "values": [{"measurement": "adiponectin secretion, in words", "setting": "adiponectin secretion [1]", "value": "failed to induce adiponectin secretion"}]}, {"molecule": "C[C@]12C=CC(=O)C=C1CC[C@@H]1[C@@H]2[C@@H](O)C[C@@]2(C)[C@H]1CC[C@]2(O)C(=O)CO", "note": "[prednisolone]", "values": [{"measurement": "serum IL-6 levels, in words", "setting": "IL-6", "value": "reached a statistical significance"}]}, {"molecule": "CN(C)C(=N)N=C(N)N", "note": "[metformin]", "values": [{"measurement": "serum glucose, in words", "setting": "[5]", "value": "decreased"}]}]}
